Test results taken from the supplement of paper PMC11061612.

Columns and labels:
Test in all cases: Bliss excess, mean over the matrix (fraction); higher = more synergy
[1] = tested on: LB831-BLC (Bladder Carcinoma)
In short: (§1)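 After 24 hours at 37°C and 5% CO2 in 1536-well plates, cells in DMEM/F12 or RPMI plus 10% FBS received two-drug dose matrices for 72 hours. Viability came from CellTiter-Glo 2.0 luminescence and was scaled as inhibition, anchored at 0 by vehicle wells and at 1 by blank wells. Combination Emax is taken as the second-highest inhibition in the matrix, and Bliss excess as the observed combination effect less EA + EB − EA·EB, with EA and EB the single-agent effects.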

[2] = tested on: TE-9 (Esophageal Squamous Cell Carcinoma)
In short: as §1

[3] = tested on: CaR-1 (Colorectal Carcinoma)
In short: as §1

[4] = tested on: KP-1N (Pancreatic Carcinoma)
In short: as §1

[5] = tested on: NCI-H82 (Small Cell Lung Carcinoma)
In short: as §1

[6] = tested on: DEL (T-Cell Non-Hodgkin's Lymphoma)
In short: as §1

[7] = tested on: OVCA420 (Ovarian Carcinoma)
In short: as §1

[8] = tested on: UM-UC-3 (Bladder Carcinoma)
In short: as §1

NB10 (Neuroblastoma) = tested on: NB10 (Neuroblastoma)
In short: as §1

[9] = tested on: LS-180 (Colorectal Carcinoma)
In short: as §1

[10] = tested on: COLO-205 (Colorectal Carcinoma)
In short: as §1

[11] = tested on: RO82-W-1 (Thyroid Gland Carcinoma)
In short: as §1

[12] = tested on: EC-GI-10 (Esophageal Squamous Cell Carcinoma)
In short: as §1

[13] = tested on: TE-15 (Esophageal Squamous Cell Carcinoma)
In short: as §1

[14] = tested on: HCC-78 (Lung Adenocarcinoma)
In short: as §1

[15] = tested on: RC-K8 (B-Cell Non-Hodgkin's Lymphoma)
In short: as §1

HOS (Osteosarcoma) = tested on: HOS (Osteosarcoma)
In short: as §1

[16] = tested on: CCRF-CEM (T-Lymphoblastic Leukemia)
In short: as §1

KELLY (Neuroblastoma) = tested on: KELLY (Neuroblastoma)
In short: as §1

[17] = tested on: TCCSUP (Bladder Carcinoma)
In short: as §1

SMILES | Bliss excess [1] | Bliss excess [2] | Bliss excess [3] | Bliss excess [4] | Bliss excess [5] | Bliss excess [6] | Bliss excess [7] | Bliss excess [8] | Bliss excess (NB10 (Neuroblastoma)) | Bliss excess [9] | Bliss excess [10] | Bliss excess [11] | Bliss excess [12] | Bliss excess [13] | Bliss excess [14] | Bliss excess [15] | Bliss excess (HOS (Osteosarcoma)) | Bliss excess [16] | Bliss excess (KELLY (Neuroblastoma)) | Bliss excess [17]
Cc1c2c(nn1C)CSCc1cc(n(C)n1)CSc1cc(c3ccccc3c1)OCCCc1c(C(=O)O)n(C)c3c-2c(Cl)ccc13 [AZD5991] + C[C@@H](Nc1cc(F)cc(F)c1)c1cc(C(=O)N(C)C)cc2c(=O)cc(N3CCOCC3)oc12 [AZD8186] (first compound max 1 µM, 7x7, partner max 3 µM) | 0.0352 | -0.0274 | -0.0187 | -0.0533 | -0.0121 | 0.0058 | -0.0274 | 0.0098 | -0.0444 | -0.0189 | -0.0444 | 0.0066 | 0.0109 | -0.0254 | -0.005 | -0.0418 | -0.0169 | 0.0055 | 0.0259 | 0.0237
Cc1c2c(nn1C)CSCc1cc(n(C)n1)CSc1cc(c3ccccc3c1)OCCCc1c(C(=O)O)n(C)c3c-2c(Cl)ccc13 [AZD5991] + C[C@@H]1COCCN1C2=NC(=NC(=C2)C3(CC3)[S@](=N)(=O)C)C4=C5C=CNC5=NC=C4 [AZD6738] (first compound max 1 µM, 7x7, partner max 10 µM) | 0.0641 | -0.0039 | -0.0134 | 0.0679 | -0.0218 | 0.004 | 0.0076 | 0.0159 | 0.0339 | 0.0196 | 0.0116 | -0.0303 | 0.061 | -0.0441 | 0.0028 | 0.0114 | 0.0356 | 0.0397 | 0.0647 | 0.0241
NC1(C(=O)N[C@@H](CCO)c2ccc(Cl)cc2)CCN(c2ncnc3[nH]ccc23)CC1 [Capivasertib] + CC(C)n1c(=O)n(C)c2cnc3cc(F)c(-c4ccc(OCCCN5CCCCC5)nc4)cc3c21 [AZD1390] (first compound max 10 µM, 7x7, partner max 0.3 µM) | -0.0383 | -0.0431 | -0.0401 | -0.0767 | 0.0005 | 0.0336 | -0.0406 | -0.0211 | -0.0544 | -0.0332 | -0.0605 | -0.0236 | -0.0418 | -0.0774 | -0.0434 | -0.0149 | -0.0278 | -0.0847 | -0.0322 | -0.084
COc1nnc2ccc(N3CCC(c4ccc(OCCN5CCN(C)C(=O)[C@H]5C)cc4)CC3)nn12 [AZD5153] + CC1(C)CCC(CN2CCN(c3ccc(C(=O)NS(=O)(=O)c4ccc(NCC5CCOCC5)c([N+](=O)[O-])c4)c(Oc4cnc5[nH]ccc5c4)c3)CC2)=C(c2ccc(Cl)cc2)C1 [Venetoclax] (first compound max 1 µM, 7x7, partner max 1 µM) | -0.0627 | -0.0599 | -0.0643 | -0.0714 | -0.103 | -0.0559 | -0.0527 | -0.043 | -0.0566 | -0.0614 | -0.0745 | -0.0712 | -0.118 | -0.0698 | -0.0448 | -0.0587 | -0.0508 | -0.0742 | -0.0857 | -0.0768
NC1(C(=O)N[C@@H](CCO)c2ccc(Cl)cc2)CCN(c2ncnc3[nH]ccc23)CC1 [Capivasertib] + CC(=O)c1c(C)c2cnc(Nc3ccc(N4CCNCC4)cn3)nc2n(C2CCCC2)c1=O [Palbociclib] (first compound max 10 µM, 7x7, partner max 10 µM) | -0.0586 | -0.0271 | 0.0034 | 0.0023 | -0.0229 | 0.0706 | 0.0261 | 0.0504 | 0.0232 | 0.0189 | 0.0317 | -0.0125 | -0.0056 | 0.0281 | -0.0134 | -0.0014 | 0.0023 | 0.0861 | 0.151 | 0.0372
COc1cccc(OCCCN)c1-c1cc(Nc2cnc(C#N)cn2)n[nH]1 [Prexasertib] + Cc1cc2ncnn2cc1Nc1ncc2c(n1)n(C1CCOCC1)c(=O)n2C [AZD7648] (first compound max 1 µM, 7x7, partner max 10 µM) | -0.0865 | -0.0322 | 0.0141 | -0.0207 | -0.0355 | -0.0097 | -0.0002 | -0.0198 | -0.0407 | -0.0329 | 0.0227 | -0.058 | -0.0144 | -0.0105 | -0.0841 | – | -0.0393 | -0.0076 | -0.0027 | -0.0182
C[C@@H]1COCCN1c1cc(C2([S@](C)(=N)=O)CC2)nc(-c2ccnc3[nH]ccc23)n1 [AZD6738] + O=C(c1cc(Cc2n[nH]c(=O)c3ccccc23)ccc1F)N1CCN(C(=O)C2CC2)CC1 [Olaparib] (first compound max 10 µM, 7x7, partner max 10 µM) | 0.0336 | 0.0403 | -0.0391 | 0.0379 | -0.0194 | 0.0399 | 0.0117 | 0.0829 | 0.0017 | 0.0208 | 0.0205 | -0.098 | -0.0147 | -0.0465 | 0.0171 | – | 0.0132 | 0.0377 | 0.0227 | 0.067
CN(C)CCCOc1ccc(-c2ccc3ncc4c(c3c2)n(C2CCOCC2)c(=O)n4C)cn1 [AZD0156] + CCN(CCO)CCCOc1ccc2c(Nc3cc(CC(=O)Nc4cccc(F)c4)[nH]n3)ncnc2c1 [AZD2811] (first compound max 1 µM, 7x7, partner max 1 µM) | -0.0356 | -0.0214 | -0.0097 | 0.0312 | 0.0315 | 0.117 | -0.0308 | -0.0079 | -0.0464 | -0.0264 | 0.0035 | -0.0556 | 0.0507 | -0.0382 | -0.0058 | – | -0.0186 | 0.0045 | 0.0099 | -0.0589
Cc1cc2ncnn2cc1Nc1ncc2c(n1)n(C1CCOCC1)c(=O)n2C [AZD7648] + C=CCn1c(=O)c2cnc(Nc3ccc(N4CCN(C)CC4)cc3)nc2n1-c1cccc(C(C)(C)O)n1 [AZD1775] (first compound max 10 µM, partner max 1 µM) | -0.0611 | 0.0148 | 0.0022 | -0.0681 | -0.0429 | 0.023 | -0.0186 | 0.0279 | -0.0812 | -0.0272 | -0.026 | 0.131 | -0.0049 | 0.0223 | -0.0417 | – | -0.0109 | 0.0337 | 0.015 | -0.0109
COc1cccc2c1C(=O)c1c(O)c3c(c(O)c1C2=O)C[C@@](O)(C(=O)CO)C[C@@H]3O[C@H]1C[C@H](N)[C@H](O)[C@H](C)O1 [Doxorubicin] + Cc1cc2ncnn2cc1Nc1ncc2c(n1)n(C1CCOCC1)c(=O)n2C [AZD7648] (first compound max 1 µM, 7x7, partner max 10 µM) | 0.0858 | -0.0393 | 0.0309 | 0.0574 | 0.0827 | 0.0935 | 0.0022 | 0.0688 | 0.0799 | 0.0033 | -0.0041 | -0.0346 | 0.0887 | 0.0507 | 0.049 | – | 0.145 | 0.123 | 0.0411 | 0.0282
COc1cccc(OCCCN)c1-c1cc(Nc2cnc(C#N)cn2)n[nH]1 [Prexasertib] + C[C@@H]1COCCN1C2=NC(=NC(=C2)C3(CC3)[S@](=N)(=O)C)C4=C5C=CNC5=NC=C4 [AZD6738] (first compound max 1 µM, 7x7, partner max 10 µM) | 0.019 | -0.0233 | 0.0097 | 0.0331 | -0.0186 | 0.001 | -0.0214 | 0.0563 | -0.0145 | 0.0194 | 0.0369 | 0.005 | 0.0193 | -0.0395 | 0.0318 | – | 0.0261 | -0.0013 | 0.0187 | -0.0245
CCN(CCO)CCCOc1ccc2c(Nc3cc(CC(=O)Nc4cccc(F)c4)[nH]n3)ncnc2c1 [AZD2811] + C=CCn1c(=O)c2cnc(Nc3ccc(N4CCN(C)CC4)cc3)nc2n1-c1cccc(C(C)(C)O)n1 [AZD1775] (first compound max 1 µM, partner max 1 µM) | 0.005 | -0.0285 | -0.0165 | 0.0124 | 0.0241 | 0.0636 | -0.0047 | -0.0171 | -0.0399 | 0.0269 | 0.008 | -0.063 | 0.0411 | -0.0576 | 0.0092 | – | 0.0066 | 0.006 | 0.0569 | -0.0204
C[C@@H](c1ccc2nccn2c1)n1nnc2ncc(-c3cnn(C)c3)nc21 [Savolitinib] + CN(CC[C@H](CSC1=CC=CC=C1)NC2=C(C=C(C=C2)S(=O)(=O)NC(=O)C3=CC=C(C=C3)N4CCC(CC4)[C@H](C5=CC=CC=C5C6=CC=C(C=C6)Cl)O)S(=O)(=O)C(F)(F)F)CCO [AZD4320] (first compound max 1 µM, 7x7, partner max 1 µM) | – | – | – | -0.0755 | – | -0.0318 | -0.0691 | – | – | – | -0.043 | – | 0.0005 | – | – | -0.0478 | – | – | – | -0.0469
COc1nnc2ccc(N3CCC(c4ccc(OCCN5CCN(C)C(=O)[C@H]5C)cc4)CC3)nn12 [AZD5153] + CN(CC[C@H](CSC1=CC=CC=C1)NC2=C(C=C(C=C2)S(=O)(=O)NC(=O)C3=CC=C(C=C3)N4CCC(CC4)[C@H](C5=CC=CC=C5C6=CC=C(C=C6)Cl)O)S(=O)(=O)C(F)(F)F)CCO [AZD4320] (first compound max 1 µM, 7x7, partner max 1 µM) | – | – | – | -0.0004 | – | 0.0204 | -0.0203 | – | – | – | 0.0335 | – | -0.0052 | – | – | -0.0145 | – | – | – | 0.0033
C=CCn1c(=O)c2cnc(Nc3ccc(N4CCN(C)CC4)cc3)nc2n1-c1cccc(C(C)(C)O)n1 [AZD1775] + O=C(c1cc(Cc2n[nH]c(=O)c3ccccc23)ccc1F)N1CCN(C(=O)C2CC2)CC1 [Olaparib] (first compound max 1 µM, partner max 10 µM) | -0.01 | -0.0271 | -0.0077 | -0.0239 | -0.0098 | 0.0023 | 0.0916 | 0.0251 | -0.0088 | -0.0188 | -0.0149 | -0.0724 | -0.0245 | -0.106 | -0.029 | – | -0.0389 | -0.0381 | 0.0038 | 0.0107
